Experimental data from PubChem BioAssay (NCI).
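Abbreviation: GI50, concentration required for 50% inhibition of growth. TGI is the concentration that stops growth completely.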

Key:
Assay in all cases: inhibition of tumour cell growth, NCI panel, 384-well format
PC-3 prostate = system: PC-3 prostate
MDA-MB-468 breast = system: MDA-MB-468 breast
SK-MEL-5 melanoma = system: SK-MEL-5 melanoma
SF-295 CNS = system: SF-295 CNS
SN12C renal = system: SN12C renal
DU-145 prostate = system: DU-145 prostate
U251 glioblastoma = system: U251 glioblastoma
RXF 393 renal = system: RXF 393 renal
NCI-H23 lung = system: NCI-H23 lung
SR leukemia = system: SR leukemia
K-562 leukemia = system: K-562 leukemia
786-0 renal = system: 786-0 renal
MDA-MB-435 melanoma = system: MDA-MB-435 melanoma
MALME-3M melanoma = system: MALME-3M melanoma
A549 NSCLC = system: A549 NSCLC
OVCAR-5 ovarian = system: OVCAR-5 ovarian
SK-MEL-2 melanoma = system: SK-MEL-2 melanoma
CAKI-1 renal = system: CAKI-1 renal
NCI-H226 lung = system: NCI-H226 lung
OVCAR-8 ovarian = system: OVCAR-8 ovarian
SK-OV-3 ovarian = system: SK-OV-3 ovarian
COLO 205 colon = system: COLO 205 colon
NCI-H460 NSCLC = system: NCI-H460 NSCLC
MDA-MB-231 breast = system: MDA-MB-231 breast
T-47D breast = system: T-47D breast
A498 renal = system: A498 renal
HOP-62 NSCLC = system: HOP-62 NSCLC
HL-60(TB) leukemia = system: HL-60(TB) leukemia
RPMI-8226 leukemia = system: RPMI-8226 leukemia
SF-539 CNS = system: SF-539 CNS
SF-268 CNS = system: SF-268 CNS
MOLT-4 leukemia = system: MOLT-4 leukemia
CCRF-CEM leukemia = system: CCRF-CEM leukemia
NCI-H322M lung = system: NCI-H322M lung
SNB-19 CNS = system: SNB-19 CNS
UACC-257 melanoma = system: UACC-257 melanoma
MCF7 breast = system: MCF7 breast
OVCAR-3 ovarian = system: OVCAR-3 ovarian
M14 melanoma = system: M14 melanoma
SW-620 colon = system: SW-620 colon
LOX IMVI melanoma = system: LOX IMVI melanoma
HCC-2998 colon = system: HCC-2998 colon
UO-31 renal = system: UO-31 renal
SK-MEL-28 melanoma = system: SK-MEL-28 melanoma
IGROV1 ovarian = system: IGROV1 ovarian
TK-10 renal = system: TK-10 renal
HOP-92 NSCLC = system: HOP-92 NSCLC
UACC-62 melanoma = system: UACC-62 melanoma
ACHN renal = system: ACHN renal
OVCAR-4 ovarian = system: OVCAR-4 ovarian
HCT-15 colon = system: HCT-15 colon
BT-549 breast = system: BT-549 breast
NCI/ADR-RES ovarian = system: NCI/ADR-RES ovarian
HT29 colon = system: HT29 colon
NCI-H522 lung = system: NCI-H522 lung
HCT-116 colon = system: HCT-116 colon
KM12 colon = system: KM12 colon

Question: `C#CCN(c1ccc(C(=O)N[C@@H](CCC(=O)N[C@H](CCC(=O)O)C(=O)O)C(=O)O)cc1)C1CCc2cc3nc(CO)[nH]c(=O)c3cc21` (some centres undefined) was tested. Which GI50 (PC-3 prostate) did it give?
Answer: 9.44 µM

Question: What about the TGI (PC-3 prostate) of the same compound?
Answer: > 100 µM

Question: And the GI50 (MDA-MB-468 breast)?
Answer: 3.72 µM

Question: And the TGI (MDA-MB-468 breast)?
Answer: 8.76 µM

Question: And the GI50 (SK-MEL-5 melanoma)?
Answer: 11.6 µM

Question: What about the TGI (SK-MEL-5 melanoma) of the same compound?
Answer: > 100 µM

Question: And the GI50 (SF-295 CNS)?
Answer: 2760 nM

Question: And the TGI (SF-295 CNS)?
Answer: 7 µM

Question: What about the GI50 (SN12C renal) of the same compound?
Answer: 3.75 µM

Question: What about the TGI (SN12C renal) of the same compound?
Answer: 46.9 µM

Question: And the GI50 (DU-145 prostate)?
Answer: 3.49 µM

Question: What about the TGI (DU-145 prostate) of the same compound?
Answer: 20.3 µM

Question: And the GI50 (U251 glioblastoma)?
Answer: 68.9 µM

Question: What about the TGI (U251 glioblastoma) of the same compound?
Answer: > 100 µM

Question: And the GI50 (RXF 393 renal)?
Answer: 8.09 µM

Question: And the TGI (RXF 393 renal)?
Answer: 71.9 µM

Question: What about the GI50 (NCI-H23 lung) of the same compound?
Answer: 21.9 µM

Question: What about the TGI (NCI-H23 lung) of the same compound?
Answer: 57.3 µM

Question: And the GI50 (SR leukemia)?
Answer: 1900 nM

Question: And the TGI (SR leukemia)?
Answer: 3.38 µM

Question: And the GI50 (K-562 leukemia)?
Answer: 7.67 µM

Question: What about the TGI (K-562 leukemia) of the same compound?
Answer: > 100 µM

Question: And the GI50 ([…]-0 renal)?
Answer: 3.69 µM

Question: And the TGI (786-0 renal)?
Answer: 31.1 µM

Question: And the GI50 (MDA-MB-435 melanoma)?
Answer: > 100 µM

Question: What about the TGI (MDA-MB-435 melanoma) of the same compound?
Answer: > 100 µM

Question: And the GI50 (MALME-3M melanoma)?
Answer: > 100 µM

Question: And the TGI (MALME-3M melanoma)?
Answer: > 100 µM

Question: And the GI50 (A549 NSCLC)?
Answer: 5.94 µM

Question: What about the TGI (A549 NSCLC) of the same compound?
Answer: > 100 µM

Question: And the GI50 (OVCAR-5 ovarian)?
Answer: > 100 µM

Question: And the TGI (OVCAR-5 ovarian)?
Answer: > 100 µM

Question: And the GI50 (SK-MEL-2 melanoma)?
Answer: 99.9 µM

Question: And the TGI (SK-MEL-2 melanoma)?
Answer: > 100 µM

Question: What about the GI50 (CAKI-1 renal) of the same compound?
Answer: 8.9 µM

Question: What about the TGI (CAKI-1 renal) of the same compound?
Answer: > 100 µM

Question: And the GI50 (NCI-H226 lung)?
Answer: 35.4 µM

Question: What about the TGI (NCI-H226 lung) of the same compound?
Answer: > 100 µM

Question: What about the GI50 (OVCAR-8 ovarian) of the same compound?
Answer: 4.54 µM

Question: And the TGI (OVCAR-8 ovarian)?
Answer: > 100 µM

Question: What about the GI50 (SK-OV-3 ovarian) of the same compound?
Answer: 43.2 µM

Question: And the TGI (SK-OV-3 ovarian)?
Answer: > 100 µM

Question: What about the GI50 (COLO 205 colon) of the same compound?
Answer: 7.84 µM

Question: What about the TGI (COLO 205 colon) of the same compound?
Answer: > 100 µM

Question: And the GI50 (NCI-H460 NSCLC)?
Answer: 5.02 µM

Question: What about the TGI (NCI-H460 NSCLC) of the same compound?
Answer: > 100 µM

Question: What about the GI50 (MDA-MB-231 breast) of the same compound?
Answer: > 100 µM

Question: And the TGI (MDA-MB-231 breast)?
Answer: > 100 µM

Question: And the GI50 (T-47D breast)?
Answer: > 100 µM

Question: What about the TGI (T-47D breast) of the same compound?
Answer: > 100 µM

Question: What about the GI50 (A498 renal) of the same compound?
Answer: 5.06 µM

Question: What about the TGI (A498 renal) of the same compound?
Answer: > 100 µM

Question: And the GI50 (HOP-62 NSCLC)?
Answer: 10.5 µM

Question: What about the TGI (HOP-62 NSCLC) of the same compound?
Answer: 45.8 µM

Question: And the GI50 (HL-60(TB) leukemia)?
Answer: 3.02 µM

Question: And the TGI (HL-60(TB) leukemia)?
Answer: 7.56 µM

Question: What about the GI50 (RPMI-8226 leukemia) of the same compound?
Answer: 2000 nM

Question: What about the TGI (RPMI-8226 leukemia) of the same compound?
Answer: 4.03 µM

Question: And the GI50 (SF-539 CNS)?
Answer: 4.67 µM

Question: What about the TGI (SF-539 CNS) of the same compound?
Answer: > 100 µM

Question: What about the GI50 (SF-268 CNS) of the same compound?
Answer: 4.09 µM

Question: And the TGI (SF-268 CNS)?
Answer: 27.5 µM

Question: What about the GI50 (MOLT-4 leukemia) of the same compound?
Answer: 2670 nM

Question: What about the TGI (MOLT-4 leukemia) of the same compound?
Answer: 5.52 µM

Question: And the GI50 (CCRF-CEM leukemia)?
Answer: 1970 nM

Question: And the TGI (CCRF-CEM leukemia)?
Answer: 4.68 µM

Question: And the GI50 (NCI-H322M lung)?
Answer: > 100 µM

Question: What about the TGI (NCI-H322M lung) of the same compound?
Answer: > 100 µM

Question: What about the GI50 (SNB-19 CNS) of the same compound?
Answer: 5.96 µM

Question: And the TGI (SNB-19 CNS)?
Answer: > 100 µM

Question: And the GI50 (UACC-257 melanoma)?
Answer: > 100 µM

Question: And the TGI (UACC-257 melanoma)?
Answer: > 100 µM

Question: What about the GI50 (MCF7 breast) of the same compound?
Answer: 800 nM

Question: What about the TGI (MCF7 breast) of the same compound?
Answer: > 100 µM

Question: And the GI50 (OVCAR-3 ovarian)?
Answer: 9.01 µM

Question: And the TGI (OVCAR-3 ovarian)?
Answer: > 100 µM

Question: What about the GI50 (M14 melanoma) of the same compound?
Answer: 8.69 µM

Question: And the TGI (M14 melanoma)?
Answer: > 100 µM

Question: What about the GI50 (SW-620 colon) of the same compound?
Answer: 9 µM

Question: And the TGI (SW-620 colon)?
Answer: > 100 µM

Question: What about the GI50 (LOX IMVI melanoma) of the same compound?
Answer: 5.03 µM

Question: What about the TGI (LOX IMVI melanoma) of the same compound?
Answer: > 100 µM

Question: What about the GI50 (HCC-2998 colon) of the same compound?
Answer: 386 nM

Question: What about the TGI (HCC-2998 colon) of the same compound?
Answer: 3.96 µM

Question: What about the GI50 (UO-31 renal) of the same compound?
Answer: 4.46 µM

Question: What about the TGI (UO-31 renal) of the same compound?
Answer: 62.4 µM

Question: What about the GI50 (SK-MEL-28 melanoma) of the same compound?
Answer: 5.13 µM

Question: What about the TGI (SK-MEL-28 melanoma) of the same compound?
Answer: > 100 µM

Question: What about the GI50 (IGROV1 ovarian) of the same compound?
Answer: 60.3 µM

Question: What about the TGI (IGROV1 ovarian) of the same compound?
Answer: > 100 µM

Question: And the GI50 (TK-10 renal)?
Answer: 6.69 µM

Question: What about the TGI (TK-10 renal) of the same compound?
Answer: > 100 µM

Question: What about the GI50 (HOP-92 NSCLC) of the same compound?
Answer: 13.3 µM

Question: And the TGI (HOP-92 NSCLC)?
Answer: > 100 µM

Question: And the GI50 (UACC-62 melanoma)?
Answer: 64.6 µM

Question: And the TGI (UACC-62 melanoma)?
Answer: > 100 µM

Question: And the GI50 (ACHN renal)?
Answer: 4.25 µM

Question: What about the TGI (ACHN renal) of the same compound?
Answer: > 100 µM

Question: What about the GI50 (OVCAR-4 ovarian) of the same compound?
Answer: > 100 µM

Question: And the TGI (OVCAR-4 ovarian)?
Answer: > 100 µM

Question: And the GI50 (HCT-15 colon)?
Answer: 5.2 µM

Question: And the TGI (HCT-15 colon)?
Answer: > 100 µM

Question: And the GI50 (BT-549 breast)?
Answer: 6.68 µM

Question: What about the TGI (BT-549 breast) of the same compound?
Answer: > 100 µM

Question: And the GI50 (NCI/ADR-RES ovarian)?
Answer: 3.18 µM

Question: And the TGI (NCI/ADR-RES ovarian)?
Answer: 8.45 µM

Question: And the GI50 (HT29 colon)?
Answer: 5.23 µM

Question: What about the TGI (HT29 colon) of the same compound?
Answer: > 100 µM

Question: And the GI50 (NCI-H522 lung)?
Answer: 3.04 µM

Question: What about the TGI (NCI-H522 lung) of the same compound?
Answer: 7.83 µM

Question: What about the GI50 (HCT-116 colon) of the same compound?
Answer: 4.57 µM

Question: And the TGI (HCT-116 colon)?
Answer: > 100 µM

Question: What about the GI50 (KM12 colon) of the same compound?
Answer: > 100 µM

Question: And the TGI (KM12 colon)?
Answer: > 100 µM
